Assay results taken from article PMC10791743, “Selective CK1α degraders exert antiproliferative activity against a broad range of human cancer cell lines” (Nature Communications, 2024).
Entries after “also recorded” stand apart in the source; their conditions may differ. Read-outs that look alike come from different tables or passages of the source.

Key:
[1] = biological target: T1, CK1α G40N (Homo sapiens, UniProt P48729, G40N); experiment: Immunoblot of transduced MOLM-13 cells (FLAG-CK1α WT / G40N); format: cell-based; conditions: 1 μM, 4 h
T1 construct: host or cells: MOLM-13, lentiviral transduction, puromycin selected
Method: To evaluate the contribution of the CK1α degradation in SJ3149-mediated cytotoxicity, we utilized the degradation-resistant mutant CK1α G40N[41]. MOLM-13 cells were transduced with lentivirus to overexpress FLAG-tagged wild type CK1α or the G40N mutant, which removes the essential glycine in the CK1α degron G-loop.
Frozen pellets of ~1 million cells were lysed in 150 µl of SDS lysis buffer (60 mM Tris/HCl pH 7, 10% glycerol, 2% SDS, 5% beta-mercaptoethanol, 0.02% bromophenol blue, 0.5% protease and phosphatase inhibitor cocktail (Sigma Aldrich)). When cells were resuspended, samples were heated for 3 min at 99 °C then put on ice. Samples were then fragmented by sonication for 10 0.5-s pulses (550 Sonic Dismembrator, Fisher Scientific) and heated again at 99 °C for 2 min. 15 μl of each sample was added to the wells of a 4–20% polyacrylamide gel (Bio-Rad). A mixture of 2 μl of Precision Plus Protein Unstained Standards and 2 μl of Precision Plus Protein All Blue Standards (Bio-Rad) was used for the size marker. After electrophoresis, gels were transferred to nitrocellulose membrane using the Bio-Rad Trans-Blot Turbo system on the mixed molecular weight setting. […] Blots were imaged with the Li-Cor Odyssey CLx and analyzed using Image Studio Version 5.2. […]

[2] = system: 115 human cancer cell lines; experiment: Oncolines panel cell viability assay (ATPlite, 72 h); format: cell-based; conditions: for IC50: Homo sapiens
Description: To evaluate the compound’s effect and potential therapeutic application across a diverse range of human cancers, we profiled SJ3149 in Oncolines® panel consisting of 115 human cancer cell lines, of which 86 were solid tumor and 29 hematologic cell lines, including MOLM-13. Effect on cell viability was monitored using ATPLite™ (Perkin Elmer), which measures intracellular ATP content as an indirect readout of cell number, like CellTiter Glo.
Cell lines were purchased from the American Type Culture Collection (ATCC) (Manassas, VA, USA) or the German Collection of Microorganisms and Cell Cultures (DSMZ) (Braunschweig, Germany). All experiments were carried out within ten passages of the original vials. Authenticity of the cell lines was confirmed by short tandem repeat analysis at the respective provider.
Cell viability assays were performed as previously described. In brief, cells were seeded in a 384-well plate at an optimized density. The starting cell number was determined after 24 h incubation by adding ATPlite 1Step (Perkin Elmer, Groningen, the Netherlands) to each well and recording luminescence on an Envision multimode reader (Perkin Elmer, Waltham, MA). After the addition of a duplicate 9-point dilution series of SJ3149, cells were incubated for another 72 h, followed by cell counting using ATPlite 1Step. The dilution series ranged from 3.2 to 31,600 nM or was diluted 100-fold for the most sensitive cell lines to ideally capture the complete dose–response curve. Percentage viability was determined at each compound concentration by relating the observed signal to a vehicle-treated control, that is, medium containing 0.4% (v/v) DMSO. Compound IC50 values were calculated by fitting a 4-parameter logistic curve to the percentage viability values using IDBS XLfit5 (IDBS, Guildford, UK). The IC50 was limited to the maximum tested compound concentration when the IC50 exceeded the maximum tested concentration.

T1 sequence (Q96SW2 whole entry partner): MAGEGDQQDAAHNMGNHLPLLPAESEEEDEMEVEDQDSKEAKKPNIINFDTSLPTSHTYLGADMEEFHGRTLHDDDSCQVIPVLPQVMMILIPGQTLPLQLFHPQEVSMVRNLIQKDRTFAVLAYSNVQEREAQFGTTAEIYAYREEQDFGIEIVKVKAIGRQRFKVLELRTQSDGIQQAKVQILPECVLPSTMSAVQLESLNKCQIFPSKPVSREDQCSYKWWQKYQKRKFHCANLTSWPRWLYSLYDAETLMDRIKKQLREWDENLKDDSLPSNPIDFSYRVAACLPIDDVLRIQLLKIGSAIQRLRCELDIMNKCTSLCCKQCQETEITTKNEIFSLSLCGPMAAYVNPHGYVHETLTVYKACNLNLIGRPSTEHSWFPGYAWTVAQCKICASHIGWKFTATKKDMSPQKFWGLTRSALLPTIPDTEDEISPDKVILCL
T1 sequence (Q16531 whole entry partner): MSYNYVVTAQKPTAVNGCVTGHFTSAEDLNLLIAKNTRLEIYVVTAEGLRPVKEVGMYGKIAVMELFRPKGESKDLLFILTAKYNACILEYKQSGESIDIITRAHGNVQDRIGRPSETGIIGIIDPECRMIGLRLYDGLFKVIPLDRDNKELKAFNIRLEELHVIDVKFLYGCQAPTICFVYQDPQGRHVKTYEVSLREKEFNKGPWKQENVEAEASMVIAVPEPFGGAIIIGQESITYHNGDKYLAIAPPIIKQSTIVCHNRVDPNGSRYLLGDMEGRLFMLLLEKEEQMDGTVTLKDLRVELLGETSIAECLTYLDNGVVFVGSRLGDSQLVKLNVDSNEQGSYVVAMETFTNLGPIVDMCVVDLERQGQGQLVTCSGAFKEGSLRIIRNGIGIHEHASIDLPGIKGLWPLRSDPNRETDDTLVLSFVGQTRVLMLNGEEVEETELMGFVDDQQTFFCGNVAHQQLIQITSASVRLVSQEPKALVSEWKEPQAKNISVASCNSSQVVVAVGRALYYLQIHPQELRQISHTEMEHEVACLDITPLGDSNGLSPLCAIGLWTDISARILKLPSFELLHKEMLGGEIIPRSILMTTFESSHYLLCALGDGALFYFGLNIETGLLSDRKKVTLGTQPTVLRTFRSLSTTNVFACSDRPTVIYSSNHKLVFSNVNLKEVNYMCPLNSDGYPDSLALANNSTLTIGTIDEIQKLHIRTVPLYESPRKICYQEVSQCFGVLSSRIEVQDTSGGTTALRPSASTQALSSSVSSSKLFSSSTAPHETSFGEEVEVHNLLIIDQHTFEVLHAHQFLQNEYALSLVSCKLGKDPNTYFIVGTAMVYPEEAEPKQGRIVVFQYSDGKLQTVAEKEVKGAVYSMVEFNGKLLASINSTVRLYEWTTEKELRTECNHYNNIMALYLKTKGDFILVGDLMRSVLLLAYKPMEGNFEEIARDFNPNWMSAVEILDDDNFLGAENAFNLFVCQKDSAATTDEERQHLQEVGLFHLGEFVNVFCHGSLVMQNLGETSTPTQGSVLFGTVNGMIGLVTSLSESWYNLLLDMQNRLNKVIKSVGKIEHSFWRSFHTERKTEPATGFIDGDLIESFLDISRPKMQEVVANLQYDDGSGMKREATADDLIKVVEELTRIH
T1 sequence (P48729 whole entry G40N): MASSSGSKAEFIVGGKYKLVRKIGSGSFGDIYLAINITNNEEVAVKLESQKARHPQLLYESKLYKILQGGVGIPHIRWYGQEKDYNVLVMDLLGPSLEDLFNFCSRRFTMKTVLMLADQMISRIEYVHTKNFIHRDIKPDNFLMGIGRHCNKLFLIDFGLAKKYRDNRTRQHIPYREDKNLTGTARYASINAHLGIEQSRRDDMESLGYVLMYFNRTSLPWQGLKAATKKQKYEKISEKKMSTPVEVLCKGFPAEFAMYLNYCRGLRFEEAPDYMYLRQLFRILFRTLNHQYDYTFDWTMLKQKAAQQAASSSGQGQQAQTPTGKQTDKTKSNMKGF

O=C1CCC(N2Cc3cc(Nc4noc5ccccc45)ccc3C2=O)C(=O)N1 (stereo not shown) [SJ3149]
Degradation of G40N mutant CK1α protein [1]: resistance of the G40N mutant protein to SJ3149 mediated degradation
Inhibition of viability in Oncolines panel cell lines ([2]; ATPlite, 72 h): potently inhibited the viability of AML cell lines; also recorded: potently inhibited the viability of multiple cell lines derived from solid tumors; also recorded: low nanomolar or even sub-nanomolar potency
IC50 ([2]; 769-P, cell line 769-P, Renal cell carcinoma, TP53 Wild-type, read-out: IC50): 101 nM
IC50 ([2]; A204, cell line A-204, Embryonal rhabdomyosarcoma, TP53 Wild-type, read-out: IC50): 16 nM
IC50 ([2]; A498, cell line A-498, Renal cell carcinoma, TP53 Wild-type, read-out: IC50): 5660 nM
IC50 ([2]; A549, cell line A-549, Lung adenocarcinoma, TP53 Wild-type, read-out: IC50): 38 nM
IC50 ([2]; A-375, cell line A375, Amelanotic melanoma, TP53 Wild-type, read-out: IC50): 33 nM
IC50 ([2]; ACHN, cell line ACHN, Papillary renal cell carcinoma, TP53 Wild-type, read-out: IC50): 187 nM
IC50 ([2]; AU565, cell line AU-565, Breast adenocarcinoma, TP53 Mutant, read-out: IC50): 19200 nM
IC50 ([2]; B-cell, HT, Diffuse large B-cell lymphoma, read-out: IC50): > 31600 nM
IC50 ([2]; B-cell, RL, Diffuse large B-cell lymphoma, TP53 Mutant, read-out: IC50): 27200 nM
IC50 ([2]; B-cell, cell line DB, Diffuse large B-cell lymphoma, TP53 Mutant, read-out: IC50): > 31600 nM
IC50 ([2]; BT-20, cell line BT-20, Invasive ductal carcinoma, TP53 Mutant, read-out: IC50): 30 nM
IC50 ([2]; BT-549, cell line BT-549, Invasive ductal carcinoma, TP53 Mutant, read-out: IC50): 12 nM
IC50 ([2]; CCRF-CEM, cell line CCRF-CEM, Childhood T acute lymphoblastic leukemia, TP53 Mutant, read-out: IC50): 24100 nM
IC50 ([2]; CCRF-HSB-2, CCRF-HSB-2 cells, T-ALL, read-out: IC50): 16 nM
IC50 ([2]; CCRF-HSB-2, cell line CCRF-HSB-2, Childhood T acute lymphoblastic leukemia, TP53 Wild-type, read-out: IC50): 16 nM
IC50 ([2]; CTV-1, cell line CTV-1, Adult T acute lymphoblastic leukemia, TP53 Wild-type, read-out: IC50): 212 nM
IC50 ([2]; DU-4475, cell line DU4475, Breast carcinoma, TP53 Wild-type, read-out: IC50): 16 nM
IC50 ([2]; HuTu80, HuTu 80, Duodenal adenocarcinoma, read-out: IC50): 4.6 nM
IC50 ([2]; J82, Bladder carcinoma, read-out: IC50): > 31600 nM
IC50 ([2]; JAR, Gestational choriocarcinoma, read-out: IC50): 69 nM
IC50 ([2]; JM-1, B acute lymphoblastic leukemia, read-out: IC50): 39 nM
IC50 ([2]; Jurkat E6.1, Jurkat E6.1, Childhood T acute lymphoblastic leukemia, read-out: IC50): 21200 nM
IC50 ([2]; KATO III, Signet ring cell gastric adenocarcinoma, read-out: IC50): 31400 nM
IC50 ([2]; KG-1, Adult acute myeloid leukemia, read-out: IC50): 3480 nM
IC50 ([2]; KLE, Endometrial adenocarcinoma, read-out: IC50): 28 nM
IC50 ([2]; KU812, KU812, Chronic myelogenous leukemia, read-out: IC50): 0.75 nM
IC50 ([2]; LNCaP, LNCaP FGC, Prostate carcinoma, read-out: IC50): 91 nM
IC50 ([2]; LS174T, LS 174T, Colon adenocarcinoma, read-out: IC50): 16 nM
IC50 ([2]; LoVo, Colon adenocarcinoma, read-out: IC50): 0.28 nM
IC50 ([2]; MCF7, MCF7, Invasive ductal carcinoma, read-out: IC50): 18 nM
IC50 ([2]; MOLM-13, MOLM-13, Adult acute myeloid leukemia, read-out: IC50): 4.2 nM
IC50 ([2]; MOLM-13, MOLM-13 cells, AML, read-out: IC50): 4.2 nM
IC50 ([2]; MOLT-4, MOLT-4, Adult T acute lymphoblastic leukemia, read-out: IC50): 35 nM
IC50 ([2]; NB4, Acute promyelocytic leukemia with PML-RARA, read-out: IC50): > 31600 nM
IC50 ([2]; NCCIT, Testicular embryonal carcinoma, read-out: IC50): 4.2 nM
IC50 ([2]; NOMO-1, NOMO-1, Adult acute monocytic leukemia, read-out: IC50): 53 nM
IC50 ([2]; PA-1, Ovarian mixed germ cell tumor, TP53 Wild-type, read-out: IC50): 2.8 nM
IC50 ([2]; PC-3, Prostate carcinoma, TP53 Mutant, read-out: IC50): > 31600 nM
IC50 ([2]; RD, Embryonal rhabdomyosarcoma, TP53 Mutant, read-out: IC50): 104 nM
IC50 ([2]; RKO, Colon carcinoma, TP53 Wild-type, read-out: IC50): 26800 nM
IC50 ([2]; RL95-2, RL95-2, Endometrial adenosquamous carcinoma, TP53 Mutant, read-out: IC50): 58 nM
IC50 ([2]; RPMI 8402, RPMI-8402, Childhood T acute lymphoblastic leukemia, TP53 Wild-type, read-out: IC50): 24200 nM
IC50 ([2]; RS4-11, RS4-11, Adult B acute lymphoblastic leukemia, TP53 Wild-type, read-out: IC50): 2.1 nM
IC50 ([2]; RT4, Bladder carcinoma, TP53 Wild-type, read-out: IC50): 1240 nM
IC50 ([2]; SEM, Childhood B acute lymphoblastic leukemia, TP53 Mutant, read-out: IC50): 134 nM
IC50 ([2]; SET-2, SET-2, Adult acute megakaryoblastic leukemia, TP53 Mutant, read-out: IC50): 32 nM
IC50 ([2]; SJCRH30, Alveolar rhabdomyosarcoma, TP53 Mutant, read-out: IC50): > 31600 nM
IC50 ([2]; SK-N-FI, Neuroblastoma, TP53 Mutant, read-out: IC50): 36 nM
IC50 ([2]; SR, Anaplastic large cell lymphoma, TP53 Mutant, read-out: IC50): 58 nM
IC50 ([2]; SR, SR cells, ALCL, read-out: IC50): 58 nM
IC50 ([2]; SU-DHL-1, SU-DHL-1, Anaplastic large cell lymphoma, TP53 Mutant, read-out: IC50): 12900 nM
IC50 ([2]; SU-DHL-6, SU-DHL-6, Diffuse large B-cell lymphoma, TP53 Mutant, read-out: IC50): 79 nM
IC50 ([2]; SW48, SW48, Colon adenocarcinoma, TP53 Wild-type, read-out: IC50): 19 nM
IC50 ([2]; SW900, SW900, Squamous cell lung carcinoma, TP53 Mutant, read-out: IC50): 419 nM
IC50 ([2]; SW982, SW982, Biphasic synovial sarcoma, TP53 Wild-type, read-out: IC50): 11 nM
IC50 ([2]; T24, Bladder carcinoma, TP53 Mutant, read-out: IC50): > 31600 nM
IC50 ([2]; cell line 5637, Bladder carcinoma, TP53 Mutant, read-out: IC50): 27800 nM
IC50 ([2]; cell line A388, Squamous cell carcinoma, TP53 Mutant, read-out: IC50): > 31600 nM
IC50 ([2]; cell line AP-1060, Acute promyelocytic leukemia with PML-RARA, TP53 Unknown, read-out: IC50): 1.3 nM
IC50 ([2]; cell line ES-2, Ovarian clear cell adenocarcinoma, TP53 Mutant, read-out: IC50): > 31600 nM
IC50 ([2]; cell line TT (Hereditary thyroid gland medullary carcinoma), TP53 Wild-type, read-out: IC50): 2.2 nM
IC50 ([2]; multiple cell lines from diverse tumor tissue origins, read-out: IC50 in insensitive cell lines): > 31600 nM
